Where two headings read alike, the source gives them in different places. Bounds are passed on as bounds.

What all share (assay): fluorogenic peptide substrate assay
Holding throughout (format): biochemical

One test addresses T1, MMP-9 (Homo sapiens, UniProt P14780).
T1 construct: gene MMP9
An excerpt:
fluorogenic peptide substrate assay on MMP-9

In a further test the target is T2, MMP-13 (Homo sapiens, UniProt P45452).
T2 construct: gene MMP13
An excerpt: fluorogenic peptide substrate assay on MMP-13

The target of the next test is T3, MMP-2 (Homo sapiens, UniProt P08253).
T3 construct: gene MMP2
T3 sequence (P08253 110-446 limits assumed): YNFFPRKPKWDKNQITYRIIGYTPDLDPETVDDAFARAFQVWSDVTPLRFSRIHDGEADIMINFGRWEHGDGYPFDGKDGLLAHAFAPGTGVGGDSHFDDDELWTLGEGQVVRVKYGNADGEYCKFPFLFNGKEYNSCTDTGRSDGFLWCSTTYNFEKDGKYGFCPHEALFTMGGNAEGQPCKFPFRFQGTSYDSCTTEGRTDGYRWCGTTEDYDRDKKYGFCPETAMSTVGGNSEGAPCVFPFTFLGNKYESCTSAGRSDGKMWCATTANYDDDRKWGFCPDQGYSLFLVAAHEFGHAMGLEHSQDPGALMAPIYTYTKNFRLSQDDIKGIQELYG
The text has this:
fluorogenic peptide substrate assay on MMP-2

A further test concerns the target T4, MMP-8 (Homo sapiens, UniProt P22894).
T4 construct: gene MMP8
An excerpt:
fluorogenic peptide substrate assay on MMP-8

T1 sequence (P14780 107-444 limits assumed): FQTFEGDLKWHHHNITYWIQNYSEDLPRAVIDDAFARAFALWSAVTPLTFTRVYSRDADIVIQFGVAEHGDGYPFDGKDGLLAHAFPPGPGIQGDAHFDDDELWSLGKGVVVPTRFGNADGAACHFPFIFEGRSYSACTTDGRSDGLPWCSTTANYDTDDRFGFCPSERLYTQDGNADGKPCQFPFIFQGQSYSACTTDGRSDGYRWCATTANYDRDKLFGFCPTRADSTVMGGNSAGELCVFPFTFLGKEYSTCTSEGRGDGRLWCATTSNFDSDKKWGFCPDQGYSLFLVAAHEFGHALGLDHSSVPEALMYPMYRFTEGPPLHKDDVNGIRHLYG
T4 sequence (P22894 100-262 limits assumed): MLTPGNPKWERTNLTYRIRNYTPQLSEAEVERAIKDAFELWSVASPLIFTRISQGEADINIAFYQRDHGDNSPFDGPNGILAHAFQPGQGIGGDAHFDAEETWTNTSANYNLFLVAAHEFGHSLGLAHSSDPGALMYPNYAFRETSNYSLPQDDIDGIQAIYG

Regarding `O=C(Nc1ccc(S(=O)(=O)NC(P(=O)(O)O)P(=O)(O)O)cc1)c1ccccc1` [compound 6, (4-benzamidophenylsulfonylamino)methyl-1,1-bisphosphonic acid], the IC50 against MMP-9 came out at 2.3 ± 0.1 µM; against MMP-13, 2 ± 0.7 µM; at MMP-2, 2.75 ± 0.35 µM; against MMP-8 it was 1.88 ± 0.03 µM.
Regarding `O=P(O)(O)C(NS(=O)(=O)c1ccc(-c2ccccc2)cc1)P(=O)(O)O` [ML 115], the IC50 at MMP-9 is more than 100 µM; at MMP-13, 0.74 ± 0.06 µM; against MMP-2 (OmniMMP 2.5 µM or OmniMMP RED 1 µM, pH 7.5, 1 mM CaCl2, 1 µM ZnCl2, 15 min preincubation, 37 °C), 0.14 ± 0.04 µM; on MMP-8, 0.4 ± 0.03 µM.
Take `O=C(Nc1ccccc1)Nc1ccc(S(=O)(=O)NC(P(=O)(O)O)P(=O)(O)O)cc1` [compound 4, (4-(3-phenylureido)phenylsulfonylamino)methyl-1,1-bisphosphonic acid]: the IC50 on MMP-9 is 13.8 ± 0.6 µM; against MMP-13, 15 ± 6 µM; at MMP-2, 2.8 ± 0.6 µM; at MMP-8, 48 ± 15 µM.
For `Nc1ccc(S(=O)(=O)NC(P(=O)(O)O)P(=O)(O)O)cc1` [compound 1, (4-aminophenylsulfonylamino)methyl-1,1-bisphosphonic acid] the same measures were more than 100 µM, 68.9 ± 10.2 µM, 19 ± 3 µM and 66 ± 8 µM.
For `Cc1ccc(C(=O)Nc2ccc(S(=O)(=O)NC(P(=O)(O)O)P(=O)(O)O)cc2)cc1` [compound 8, (4-(4-methylbenzamido)phenylsulfonylamino)methyl-1,1-bisphosphonic acid] the same measures were 0.67 ± 0.25 µM, 3.3 ± 0.7 µM, 0.958 ± 0.018 µM and 0.78 ± 0.18 µM.
As for `O=C(Nc1ccc(S(=O)(=O)NC(P(=O)(O)O)P(=O)(O)O)cc1)c1ccc([N+](=O)[O-])cc1` [compound 11, (4-(4-nitrobenzamido)phenylsulfonylamino)methyl-1,1-bisphosphonic acid], the IC50 at MMP-9 worked out at 0.43 ± 0.1 µM; at MMP-13 it was 0.61 ± 0.16 µM; against MMP-2, 1.7 ± 0.3 µM; against MMP-8, 0.46 ± 0.11 µM.
Regarding `O=C(Nc1ccc(S(=O)(=O)NC(P(=O)(O)O)P(=O)(O)O)cc1)c1cccc2ccccc12` [compound 12, (4-(1-naphthamido)phenylsulfonylamino)methyl-1,1-bisphosphonic acid], the IC50 against MMP-9 worked out at 21.5 ± 0.7 µM; on MMP-13, 12 ± 5 µM; against MMP-2, 2.7 ± 1 µM; against MMP-8, 25 ± 12 µM.
The corresponding values for `O=C(Nc1ccc(S(=O)(=O)NC(P(=O)(O)O)P(=O)(O)O)cc1)c1ccc2ccccc2c1` [compound 13, (4-(2-naphthamido)phenylsulfonylamino)methyl-1,1-bisphosphonic acid] are 76 ± 8 µM, 9.3 ± 0.5 µM, 3.9 ± 0.5 µM and 16.6 ± 1.9 µM.
For `O=C1c2ccccc2C(=O)N1c1ccc(S(=O)(=O)NC(P(=O)(O)O)P(=O)(O)O)cc1` [compound 5, (4-(1,3-dioxoisoindolin-2-yl)phenylsulfonylamino)methyl-1,1-bisphosphonic acid] the same measures were 15 ± 6 µM, 18.1 ± 1.5 µM, 5.3 ± 0.4 µM and 45 ± 5 µM.
Turning to `O=P(O)(O)C(NS(=O)(=O)c1cccc2ccccc12)P(=O)(O)O` [compound 3, (1-naphthylsulfonylamino)methyl-1,1-bisphosphonic acid], the IC50 against MMP-9 is 57 ± 2 µM; against MMP-13, 14.6 ± 0.8 µM; against MMP-2 it was 15.2 ± 0.5 µM; against MMP-8, 31.3 ± 1.2 µM.
For `O=P(O)(O)C(NS(=O)(=O)c1ccc2ccccc2c1)P(=O)(O)O` [compound 2, (2-naphthylsulfonylamino)methyl-1,1-bisphosphonic acid] the same measures were more than 100 µM, 9.6 ± 0.4 µM, 18.7 ± 0.8 µM and 26.8 ± 0.9 µM.
As to `O=C(Nc1ccc(S(=O)(=O)NC(P(=O)(O)O)P(=O)(O)O)cc1)c1ccc(Br)cc1` [compound 9, (4-(4-bromobenzamido)phenylsulfonylamino)methyl-1,1-bisphosphonic acid], the IC50 worked out at 0.088 ± 0.012 µM on MMP-9, 0.14 ± 0.05 µM against MMP-13, 0.67 ± 0.16 µM against MMP-2 and 0.66 ± 0.13 µM on MMP-8.
For `O=C(Nc1ccc(S(=O)(=O)NC(P(=O)(O)O)P(=O)(O)O)cc1)c1cccc(Br)c1` [compound 10, (4-(3-bromobenzamido)phenylsulfonylamino)methyl-1,1-bisphosphonic acid] the same measures were more than 100 µM, 15.9 ± 1.9 µM, 4.2 ± 1.3 µM and 17 ± 4 µM.
For `O=C(Nc1cccc(S(=O)(=O)NC(P(=O)(O)O)P(=O)(O)O)c1)c1ccccc1` [compound 7, (3-benzamidophenylsulfonylamino)methyl-1,1-bisphosphonic acid] the same measures were 50 ± 11 µM, 28 ± 4 µM, 9 ± 0.8 µM and 79 ± 8 µM.

The values are drawn from publication PMC7344628, “Bone-Seeking Matrix Metalloproteinase Inhibitors for the Treatment of Skeletal Malignancy” (Pharmaceuticals, 2020).
